In ChEMBL document CHEMBL5614382, “Discovery of a new 1-(phenylsulfonyl)-1H-indole derivative targeting the EphA2 receptor with antiproliferative activity on U251 glioblastoma cell line” (Eur J Med Chem, 2024):
pIC50, pKi: −log10 of the molar value. Active and inactive are the calls of the source. The rule behind the calls is not given here.

Legend:
[1] = biological target: T1, Ephrin type-B receptor 1 (Rattus norvegicus, UniProt P09759); test: Displacement of biotinylated Fc-tagged ephrin-B1 from N/C-terminal recombinant rat EphB1 (Met18 to Gln538 residues) preincubated for 1 hr followed by ephrin-B1-Fc addition and measured after 4 to 5 hrs by ELISA assay
T1 sequence (P09759 whole entry): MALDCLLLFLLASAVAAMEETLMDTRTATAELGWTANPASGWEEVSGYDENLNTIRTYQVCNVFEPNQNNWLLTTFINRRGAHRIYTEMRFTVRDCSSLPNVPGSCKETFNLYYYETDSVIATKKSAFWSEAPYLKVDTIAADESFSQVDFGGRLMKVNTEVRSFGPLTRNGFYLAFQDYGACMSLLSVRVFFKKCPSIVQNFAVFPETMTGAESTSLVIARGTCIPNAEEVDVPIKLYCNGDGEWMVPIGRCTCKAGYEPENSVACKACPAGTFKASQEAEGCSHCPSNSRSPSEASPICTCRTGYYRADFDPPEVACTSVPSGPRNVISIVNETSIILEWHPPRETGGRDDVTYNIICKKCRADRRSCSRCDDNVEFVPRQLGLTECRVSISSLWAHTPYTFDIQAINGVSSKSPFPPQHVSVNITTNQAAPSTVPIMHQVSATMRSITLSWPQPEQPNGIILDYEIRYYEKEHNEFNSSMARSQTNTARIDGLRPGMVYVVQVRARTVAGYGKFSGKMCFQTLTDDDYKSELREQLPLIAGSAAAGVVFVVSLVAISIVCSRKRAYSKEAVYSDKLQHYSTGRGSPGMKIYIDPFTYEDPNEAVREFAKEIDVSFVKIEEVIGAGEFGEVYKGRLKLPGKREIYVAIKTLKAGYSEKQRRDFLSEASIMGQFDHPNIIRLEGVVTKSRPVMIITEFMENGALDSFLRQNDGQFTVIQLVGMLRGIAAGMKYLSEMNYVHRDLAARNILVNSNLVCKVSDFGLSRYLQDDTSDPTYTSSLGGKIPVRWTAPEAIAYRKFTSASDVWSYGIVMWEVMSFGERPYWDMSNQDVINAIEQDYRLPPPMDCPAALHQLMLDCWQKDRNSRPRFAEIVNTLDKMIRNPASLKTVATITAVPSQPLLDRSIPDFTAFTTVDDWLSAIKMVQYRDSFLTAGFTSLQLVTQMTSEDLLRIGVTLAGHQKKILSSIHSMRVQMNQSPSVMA

[2] = biological target: Ephrin type-A receptor 2 (Homo sapiens) (UniProt P29317); test: Induction of EphA2 phosphorylation in human U-251 cells; type: cell-based
Ephrin type-A receptor 2 (Homo sapiens), sequence (P29317 whole entry): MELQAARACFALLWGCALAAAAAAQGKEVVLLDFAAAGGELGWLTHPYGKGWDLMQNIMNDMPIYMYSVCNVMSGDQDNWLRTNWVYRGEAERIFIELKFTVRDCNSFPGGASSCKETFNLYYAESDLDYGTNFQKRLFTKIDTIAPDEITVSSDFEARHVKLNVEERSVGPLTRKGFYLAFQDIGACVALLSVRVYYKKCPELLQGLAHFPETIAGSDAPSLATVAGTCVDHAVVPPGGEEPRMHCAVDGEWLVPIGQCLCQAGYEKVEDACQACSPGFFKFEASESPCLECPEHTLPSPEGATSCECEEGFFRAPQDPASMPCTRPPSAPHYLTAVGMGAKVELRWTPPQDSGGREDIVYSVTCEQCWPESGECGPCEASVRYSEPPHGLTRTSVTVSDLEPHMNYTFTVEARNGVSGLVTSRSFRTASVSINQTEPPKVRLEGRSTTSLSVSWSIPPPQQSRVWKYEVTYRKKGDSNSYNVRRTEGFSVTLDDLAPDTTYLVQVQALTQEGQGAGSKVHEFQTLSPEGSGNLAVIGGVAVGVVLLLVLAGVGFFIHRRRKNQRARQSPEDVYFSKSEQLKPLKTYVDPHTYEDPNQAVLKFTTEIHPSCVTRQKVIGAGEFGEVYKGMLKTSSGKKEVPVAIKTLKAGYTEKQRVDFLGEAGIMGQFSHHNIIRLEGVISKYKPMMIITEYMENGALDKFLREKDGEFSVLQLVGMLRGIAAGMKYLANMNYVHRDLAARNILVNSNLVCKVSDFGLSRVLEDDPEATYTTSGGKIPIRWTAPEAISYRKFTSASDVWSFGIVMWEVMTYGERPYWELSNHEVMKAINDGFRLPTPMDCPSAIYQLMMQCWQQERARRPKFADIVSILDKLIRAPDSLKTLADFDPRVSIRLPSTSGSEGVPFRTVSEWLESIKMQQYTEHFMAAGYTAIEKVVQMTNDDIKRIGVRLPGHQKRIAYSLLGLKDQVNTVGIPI

[3] = tested on: U-251; test: Antiproliferative activity against human U-251 cells assessed as inhibition of cell growth at 30 uM measured after 72 hrs by MTT assay relative to control; type: functional; parameters: scale not given: the % may be the effect or the level left
[4] = tested on: U-251; test: Cytotoxicity against human U-251 cells at upto 30 uM measured after 2 hrs by CytTox 96 non-radioactive cytotoxicity assay; type: functional, cell-based
[5] = biological target: Ephrin type-A receptor 2 (Homo sapiens) (UniProt P29317); test: Antagonist activity at EphA2 in human U-251 cells assessed as inhibition of EphA2 phosphorylation at 10 to 30 uM preincubated for 20 mins followed by ephrin-A1-Fc addition and measured after 10 mins by ELISA assay; type: cell-based; conditions: filed as antagonist, dose 10-30 µM, time 30.0 min
[6] = tested on: LOUCY; test: Antiproliferative activity against human LOUCY cells harbouring EPHA2 knockout assessed as reduction in cell viability at 1 to 10 uM measured after 72 hrs by Celltiter-glo ATP based assay; type: functional; conditions: dose 1-10 µM
[7] = tested on: U-251; test: Antiproliferative activity against human U-251 cells assessed as reduction in cell viability at 30 uM measured after 72 hrs by Celltiter-glo ATP based assay; type: functional
[8] = tested on: LOUCY; test: Antiproliferative activity against human LOUCY cells assessed as reduction in cell viability at 30 uM measured after 72 hrs by Celltiter-glo ATP based assay; type: functional
[9] = tested on: U-251; test: Antiproliferative activity against human U-251 cells assessed as increase in cell death at 30 uM measured after 48 hrs by MTT assay; type: functional, cell-based
[10] = biological target: T2, Ephrin type-A receptor 2 (Mus musculus, UniProt Q03145); test: Displacement of biotinylated Fc-tagged ephrin-A1 from C/N-terminal 6-His tagged mouse recombinant EphA2 (Ala22 to Ala535 residues) preincubated for 1 hr followed by ephrin-A1-Fc addition and measured after 4 to 5 hrs by ELISA assay
T2 sequence (Q03145 whole entry): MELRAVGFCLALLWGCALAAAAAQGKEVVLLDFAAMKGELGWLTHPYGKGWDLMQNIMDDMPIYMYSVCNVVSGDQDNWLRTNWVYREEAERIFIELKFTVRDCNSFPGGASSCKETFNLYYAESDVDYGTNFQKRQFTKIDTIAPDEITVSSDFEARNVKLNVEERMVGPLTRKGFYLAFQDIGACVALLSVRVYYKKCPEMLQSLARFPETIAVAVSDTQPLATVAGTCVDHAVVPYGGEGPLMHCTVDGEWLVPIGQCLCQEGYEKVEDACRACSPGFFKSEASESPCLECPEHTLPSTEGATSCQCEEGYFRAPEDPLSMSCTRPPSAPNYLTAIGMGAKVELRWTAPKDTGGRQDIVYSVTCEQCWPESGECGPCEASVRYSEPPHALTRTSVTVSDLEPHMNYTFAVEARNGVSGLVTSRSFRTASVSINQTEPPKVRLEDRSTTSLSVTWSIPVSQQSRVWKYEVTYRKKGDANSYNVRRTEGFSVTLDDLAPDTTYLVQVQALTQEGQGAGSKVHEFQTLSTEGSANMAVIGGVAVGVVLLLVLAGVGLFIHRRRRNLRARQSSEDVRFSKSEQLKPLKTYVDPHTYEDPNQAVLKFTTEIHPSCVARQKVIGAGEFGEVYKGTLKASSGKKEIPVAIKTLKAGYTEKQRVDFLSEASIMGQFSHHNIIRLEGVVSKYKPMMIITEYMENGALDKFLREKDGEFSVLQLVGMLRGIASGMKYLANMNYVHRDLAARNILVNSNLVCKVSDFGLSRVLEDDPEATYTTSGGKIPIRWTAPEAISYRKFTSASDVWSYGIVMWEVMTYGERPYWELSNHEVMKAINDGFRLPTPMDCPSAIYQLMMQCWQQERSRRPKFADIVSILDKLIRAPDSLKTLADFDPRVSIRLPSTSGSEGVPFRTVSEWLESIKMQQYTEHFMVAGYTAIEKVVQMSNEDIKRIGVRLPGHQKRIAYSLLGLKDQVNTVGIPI

[11] = biological target: T3, Ephrin type-B receptor 2 (Mus musculus, UniProt P54763); test: Displacement of biotinylated Fc-tagged ephrin-B1 from recombinant N/C-terminal 6-his tagged mouse EphB2 (Val27 to Lys548 residues) preincubated for 1 hr followed by ephrin-B1-Fc addition and measured after 4 to 5 hrs by ELISA assay
T3 sequence (P54763 whole entry): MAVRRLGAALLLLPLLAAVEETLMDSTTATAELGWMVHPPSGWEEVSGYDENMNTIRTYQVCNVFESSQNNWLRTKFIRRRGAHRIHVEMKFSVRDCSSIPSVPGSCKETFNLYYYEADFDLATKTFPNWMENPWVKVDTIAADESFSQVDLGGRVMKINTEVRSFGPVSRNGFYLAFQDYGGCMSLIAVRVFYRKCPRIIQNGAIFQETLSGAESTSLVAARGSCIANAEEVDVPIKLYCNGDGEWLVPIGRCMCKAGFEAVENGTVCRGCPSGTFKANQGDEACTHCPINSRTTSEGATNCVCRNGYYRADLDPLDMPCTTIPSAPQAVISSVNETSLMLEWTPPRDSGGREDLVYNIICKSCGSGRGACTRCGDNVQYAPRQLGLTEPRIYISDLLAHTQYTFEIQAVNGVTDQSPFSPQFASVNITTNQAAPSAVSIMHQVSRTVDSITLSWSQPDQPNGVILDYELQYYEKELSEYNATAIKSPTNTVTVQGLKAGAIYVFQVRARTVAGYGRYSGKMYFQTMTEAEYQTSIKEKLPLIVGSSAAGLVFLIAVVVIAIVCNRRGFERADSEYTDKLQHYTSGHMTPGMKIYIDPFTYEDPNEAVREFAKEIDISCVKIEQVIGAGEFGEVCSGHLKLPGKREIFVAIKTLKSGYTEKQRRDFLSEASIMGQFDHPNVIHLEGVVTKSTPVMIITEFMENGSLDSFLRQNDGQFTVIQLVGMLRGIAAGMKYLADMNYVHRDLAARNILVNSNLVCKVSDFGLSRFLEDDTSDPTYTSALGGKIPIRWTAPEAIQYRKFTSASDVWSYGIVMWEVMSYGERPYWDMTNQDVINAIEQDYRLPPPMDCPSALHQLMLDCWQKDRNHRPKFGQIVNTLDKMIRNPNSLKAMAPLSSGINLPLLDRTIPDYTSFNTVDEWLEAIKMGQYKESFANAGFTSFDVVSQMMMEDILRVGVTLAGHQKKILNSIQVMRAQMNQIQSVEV

[12] = biological target: T2, Ephrin type-A receptor 2; test: Displacement of biotinylated Fc-tagged ephrin-A1 from C/N-terminal 6-His tag mouse recombinant EphA2 (Ala22 to Ala535 residues) assessed as inhibition constant preincubated for 1 hr followed by ephrin-A1-Fc addition and measured after 4 to 5 hrs by ELISA assay

| Activity [2] | Activity [5] | Compound | pIC50 [1] | Activity [3] [%] | Activity [4] | Activity [6] | Activity [7] | Activity [8] | Activity [9] | pIC50 [10] | pIC50 [11] | pKi [12] |
| --- | --- | --- | --- | --- | --- | --- | --- | --- | --- | --- | --- | --- |
| – | – | C[C@H](CCC(=O)N[C@H](CC(=O)O)Cc1c[nH]c2ccccc12)[C@H]1CC[C@H]2[C@@H]3CC=C4C[C@@H](O)CC[C@]4(C)[C@H]3CC[C@]12C | 5.11 | – | – | – | – | – | – | – | – | – |
| inactive | Active | C[C@H](CCC(=O)N[C@H](CC(=O)O)Cc1cn(S(=O)(=O)c2ccc(C(F)(F)F)cc2)c2ccccc12)[C@H]1CC[C@H]2[C@@H]3CC=C4C[C@@H](O)CC[C@]4(C)[C@H]3CC[C@]12C | < 4.52 | 100 | inactive | inactive | Active | Active | Active | 5.59 | < 4.52 | 5.55 |
| – | – | C[C@H](CCC(=O)N[C@H](CC(=O)O)Cc1cn(S(=O)(=O)c2ccccc2)c2ccccc12)[C@H]1CC[C@H]2[C@@H]3CC=C4C[C@@H](O)CC[C@]4(C)[C@H]3CC[C@]12C | < 4.52 | – | – | – | – | – | – | 5.09 | < 4.52 | 5.66 |
